# Assay results taken from patent US11484536B2, “Method of treating metastatic cancer in a subject with a protein inhibitor” (City University of Hong Kong, priority 2020, dated 2022).
# Entries after “also recorded” stand apart in the source; their conditions may differ.
# What was measured:
# [1] = tested on: 4T1, 4T07, and MDA-MB-231 cells; assay: Trans-well migration assay; type: cell-based, human or mouse; details: indicated concentrations, 18 h, compared with V1
# Method: FIG. 2A is a series of microscopic images and bar charts showing the migration of 4T1, 4T07, and MDA-MB-231 cells in transwell plates in the presence or absence of V1 (1 μM). FIG. 2B is a series of microscopic images and bar charts showing the invasion of 4T1, 4T07, and MDA-MB-231 cells in invasion chambers in the presence or absence of V1 (1 μM). FIG. 2C is a series of optical images and a bar chart showing the closure of a scratch-wound plated with 4T1 cells, treated with or without V1 (1 μM), after 0, 24, and 48 h. FIG. 2D is a series of optical images and a bar chart showing the closure of a scratch-wound plated with 4T07 cells, treated with or without V1 (1 μM), after 0, 24, and 48 h. FIG. 2E is a series of microscopic images showing the migration of 4T07 cells in transwell plates in the presence or absence of V1 or LA at indicated concentrations after 18 h. […]
# In this example, the cytotoxicity and the anti-migration effects of V1 are compared with latrunculin A (LA), an F-actin destabilizer. […] The breast cancer cells were placed on the upper chamber of the transwell plates or invasion chambers coated with Matrigel in the presence or absence of V1, after 18 h of incubation, the cells at the lower chamber were stained with crystal violet and quantified. […]
# [2] = target: T1, recombinant CapZβ-CapZα heterodimer (Homo sapiens, UniProt P47756); assay: Streptavidin pulldown with purified recombinant CapZα and CapZβ; type: binding; details: in vitro
# T1 construct: His6
# Method: FIG. 14D is a pair of immunoblots of purified CapZα and CapZβ recombinant proteins after incubated with Biotin-V1. FIG. 14E is a CapZβ immunoblot of lysate of HeLa cells treated with biotin or Biotin-V1.
# The expression of these genes in HeLa cells were knocked out by CRISPR/Cas9 to assess whether the ability of V1 inducing vacuole formation or endocytosis arrest would be affected by these knockdowns. […] CapZα and CapZβ are the α and β subunits of the actin capping protein (CP), also called CapZ, and the CapZβ-CapZα heterodimeric complex normally binds to the barbed ends of actin filaments to prevent further filament elongation. To investigate whether biotin-V1 or biotin alone would be able to bind with the CapZβ-CapZα heterodimeric complex, the inventors have incubated biotin or bioin-V1 with purified His6-CapZα and His6-CapZβ recombinant proteins, or purified CapZα and CapZβ proteins, followed by subjecting the mixture to streptavidin pulldown. The streptavidin pulldowns were analyzed by His6 immunoblotting, coomassie blue staining or CapZβ immunoblotting. […] In addition, in another experiment, HeLa cells were treated with biotin or biotin-V1 and the lysate thereof was incubated with streptavidin beads, followed by subjecting to streptavidin pulldown.
# HeLa cells [3] = assay: LC3-II and p62 accumulation immunoblot; type: cell-based
# Method: FIG. 12A is a synthetic scheme of a V1 analog carrying a clickable terminal alkynyl group. FIG. 12B is a synthetic scheme of azide-biotin. FIG. 12C is a synthetic scheme of Vi-biotin.
# FIG. 23A is a schematic diagram illustrating the structure of 6J-1.
# Subsequently, biotin-V1 was administered to HeLa cell extracts, the V1 binding complex was purified with streptavidin beads, and subjected to mass analysis. There were 85 potential V1 binding proteins identified in three independent experiments with high fidelity (FIG. 13A). Among them, 32 proteins were clustered in endocytosis and vesicle-mediated transport pathways using KOBAS online software.
# In this example, a 6-morpholino-1,3,5-triazine derivative, 6J-1 was synthesized and used as an exemplary example to illustrate the inhibitory effect of 6-morpholino-1,3,5-triazine derivatives on endosomal trafficking and metastasis. As illustrated above, the induction of accumulation of LC3-II and p62 by biotin-V1 would accompany with the induction of vacuoles as well as the inhibition of transferrin degradation (see Example 4).
# [4] = tested on: HeLa, A549, or MDA-MB-231 cells; assay: Cytotoxicity of 6J-1 by PI staining and living cell number; type: cell-based
# Method: FIG. 24A is a bar chart showing the percentage of cell death of HeLa cells treated with or without 6J-1 at the indicated concentrations for 24 or 48 h. FIG. 24B is a bar chart showing the percentage of cell death of A549 cells treated with or without 6J-1 at the indicated concentrations for 24 or 48 h. FIG. 24C is a bar chart showing the percentage of cell death of MDA-MB-231 cells treated with or without 6J-1 at the indicated concentrations for 24 or 48 h.
# FIG. 25A is a line chart showing the number of HeLa cells treated with or without 6J-1 at the indicated concentrations for 0, 24 or 48 h. FIG. 25B is a line chart showing the number of MDA-MB-231 cells treated with or without 6J-1 at the indicated concentrations for 0, 24 or 48 h. FIG. 25C is a line chart showing the number of A549 cells treated with or without 6J-1 at the indicated concentrations for 0, 24 or 48 h.
# The cytotoxicity of 6J-1 on different cancer cell lines has been examined by PI staining, and the cell number of living cells was quantified as well. As shown in FIGS. 24A-24C and 25A-25C, 6J-1 is non-cytotoxic to HeLa, A549, or MDA-MB-231 cells at concentrations of 0.01-10 μM. Even at a concentration of as high as 100 μM, there were over 80% of the 6J-1-treated cells remained alive.
# [5] = tested on: 4T1, A549, HCCLM3, and HepG2; assay: Colony formation of cancer cell lines; type: cell-based; details: indicated concentrations
# Excerpt: FIG. 26 is a series of optical images showing colony formation of 4T1, A549, HCCLM3, and HepG2 cells treated with or without 6J-1 at the indicated concentrations.
# (§1) The inhibitory effect of 6J-1 on colony formation of several cancer cell lines, including 4T1, A549, HCCLM3, and HepG2 has been examined. […] Overall, 6J-1 is found to be as potent as V1.
# A549 and HepG2 cells = assay: Migration of cancer cells treated with 6J-1; type: cell-based; details: 6J-1 1 μM
# Method: FIG. 27A is a pair of microscopic images showing the migration of A549 cells treated with or without 6J-1 (1 μM). FIG. 27B is a series of microscopic images showing the migration of HepG2 cells treated with or without V1 (1 μM) or 6J-1 (1 μM).
# as §1
# A549 cells = assay: Invasion of cancer cells treated with 6J-1; type: cell-based; details: 6J-1 1 μM
# Method: FIG. 28 is a pair of microscopic images showing the invasion of A549 cells treated with or without 6J-1 (1 μM).
# as §1
# [6] = tested on: 4T1 mouse breast cancer cells; assay: Spontaneous cancer mouse model, fat pad injection of 4T1 cells into nude mice; details: 6J-1 30 mg/kg, oral, every day, 4 weeks
# Method: FIG. 5A is a schematic diagram showing a method for determining the anti-metastatic activity of V1 in female nude mice with their fat pads injected with 4T1 cells, where V1 is administered to the mice via an oral gauge. FIG. 5B is a series of optical images showing the excised lungs of the mice treated with a buffer or V1 (15 or 30 mg/kg, daily) via the oral gauge for 4 weeks. FIG. 5C is a line plot showing the number of tumor nodules in the excised lungs against different concentrations of V1.
# FIG. 29A is a series of optical images showing the excised lungs of female nude mice treated with a buffer or 6J-1 (30 mg/kg, oral delivery, daily) for 4 weeks. FIG. 29B is a line plot showing the number of tumor nodules in the excised lungs of the mice of FIG. 29A.
# First, we studied V1's anti-metastatic effects in a spontaneous cancer mouse model by fat pad injecting 4T1 mouse breast cancer cells into nude mice (FIG. 5A). After tumors were palpable (˜5 mm, around day 9), the mice were randomly divided into three groups (six mice per group) orally treated with or without V1 (15 or 30 mg/ml) every day. After 4 weeks, the mice were sacrificed; the primary tumors and lungs of the mice were harvested for analysis.
# HeLa cells [7] = assay: Focal adhesion dynamics after nocodazole release (Vinculin puncta); type: cell-based; details: nocodazole treatment
# Excerpt: The indicated time points represent at which NOC was removed from the HeLa cells, followed by staining the cells with anti-Vinculin antibody and Phalloidin. […] The indicated time points of FIGS. 3B and 3C represent at which the HeLa cells were released from cold arrest, followed by being stained with antibodies against EEA1 or LAMP1.
# Focal adhesion (FA) dynamics is a key process during cell migration and therefore the effects of V1 treatment on spatiotemporal regulation of FA dynamics have been assessed. HeLa cells were plated on cover slides at 24-well plates and treated with nocodazole (NOC) in the presence or absence of V1 (1 μM). At indicated times, after removing NOC, the cells were stained with anti-Vinculin antibody and Phalloidin, and the Vinculin puncta were quantified.
smiles,measurement,setting,value
"C/C1=C/C(=O)O[C@@H]2C[C@@H](CC[C@H](C)/C=C\C=C\CC1)O[C@@](O)([C@@H]1CSC(=O)N1)C2 [LA, latrunculin A]",migration of 4T07 cells,[1],much lower effect on the migration of 4T07 cells at similar concentrations of V1
O=C(O)CCCC[C@@H]1SC[C@@H]2NC(=O)N[C@@H]21 [biotin],interaction with recombinant CapZβ-CapZα heterodimer,[2],not biotin alone
OCCOCCN(c1ccccc1)c1nc(N/N=C/c2cccc(I)c2)nc(N2CCOCC2)n1 [6J-1],accumulation of LC3-II and p62,HeLa cells [3],highly comparable result as V1; also recorded: induces comparable accumulation of LC3-II and p62 in HeLa cells as V1
same,treated cells remained alive,[4]; 100 μM,over 80%
same,cytotoxicity,"[4]; 0.01-10 μM, 24 or 48 h",non-cytotoxic
same,colony formation,[5],inhibitory on the colony formation of all the aforementioned cell lines in a dose dependent manner
same,migration of cancer cells,A549 and HepG2 cells,capable of inhibiting migration and invasion of cancer cells
same,invasion of cancer cells,A549 cells,capable of inhibiting migration and invasion of cancer cells
same,metastasis of 4T1 cells (tumor nodules in the lungs),[6],significantly inhibited the metastasis of 4T1 cells
"COC(=O)Nc1nc2ccc(C(=O)c3cccs3)cc2[nH]1 [NOC, nocodazole]",effect on microtubules and formation of FAs,HeLa cells [7],depolymerized the microtubules and stabilized the formation of FAs
